In article PMC9959130, “Effects of Side Chain and Peptide Bond Modifications on the Targeting Properties of Stabilized Minigastrin Analogs” (Pharmaceuticals, 2023):
Like-named read-outs stand apart in the source and are kept apart here. Where a SMILES comes first, the peptide text is derived from it. [ ]: non-standard residue; d: D form. The star is where a group is joined. DOTA = O=C(O)CN1CCN(CC(=O)O)CCN(CC(=O)*)CCN(CC(=O)O)CC1; 1Nal = N[C@@H](Cc1cccc2ccccc12)C(=O)O; NMeNle = CCCC[C@H](NC)C(=O)O

Assays:
[1] = Binding to serum proteins (incubation in human serum, Sephadex G-50 size exclusion chromatography); format: in vitro ADME; conditions: radiolabeled peptide (111In where no radiometal named), 37 °C, 24 h after incubation, Sephadex G-50, γ-counter, n = 2; for Binding to Serum Proteins (%): 500 pmol/mL
Protocol: Protein binding was determined by incubation of the radiolabeled peptides in human serum at 37 °C (500 pmol/mL, n = 2). For the time points of 1, 4, and 24 h after incubation, samples of 25 µL were subjected to Sephadex G-50 size exclusion chromatography (GE Healthcare Illustra, Little Chalfont, UK). The column and the eluate were measured using the γ-counter and the percentage of protein binding was calculated.

[2] = In vitro stability in human serum (intact radiopeptide by radio-HPLC); format: in vitro ADME; conditions: radiolabeled peptide (111In where no radiometal named), fresh human serum, 37 °C, 24 h after incubation, n = 2; for Intact Radiopeptide in Human Serum (%): 1000 pmol/mL
Protocol: In vitro stability studies were performed in human serum (n = 2). The radiolabeled peptides (1000 pmol/mL) were incubated at 37 °C and a sample of 100 μL was taken at 1, 4, and 24 h after incubation. After the precipitation of proteins with ACN at 1:1.5 (v/v), centrifugation (14,000 rpm, 2 min, centrifuge 5424, Eppendorf AG, Germany) and dilution with water at 1:1 (v/v), an aliquot of 100 μL of this solution was analyzed by HPLC. Radioligand breakdown was monitored and the percentage of intact radiopeptide was calculated using Chromeleon Dionex Software (Version 7.2.9.11323). Additionally, the radiolabeled peptides (1000 pmol/mL) were incubated in PBS (n = 1) at room temperature to confirm the complex stability as a control.

[3] = Distribution coefficient (LogD) in octanol/PBS; format: physicochemical; conditions: radiolabeled peptide (111In-labeled where the label names no radiometal), shake-flask octanol/PBS, 100 pmol/mL, 15 min shaking at 1500 rpm, γ-counter, mean ± SD, n = 8
Protocol: The distribution coefficient (LogD) in octanol/PBS was determined by mixing 0.5 mL of the radiolabeled DOTA peptides diluted in PBS (100 pmol/mL) and 0.5 mL octanol in a 1.5 mL microcentrifuge tube (n = 8). After shaking for 15 min (MS3 Basic, IKA, Staufen, Germany) at 1500 rpm and a waiting time of 10 min to ensure appropriate separation of the two phases, 100 µL aliquots of each phase were pipetted into 4.5 mL tubes. The tubes were measured using a γ-counter (2480 Wizard2 3″, PerkinElmer Life Sciences and Analytical Instruments, formerly Wallac Oy, Turku, Finland) and the LogD value was determined using following equation: LogD=Log(cpmoctanol phase/cpmPBS phase)

[4] = Biodistribution in BALB/c nude mice bearing A431-CCK2R/A431-mock xenografts; format: in vivo; conditions: female, athymic BALB/c nude, mouse, iv, 20 pmol, total radioactivity, ~20 pmol, 4 h p.i. (indium-111 or lutetium-177), mean ± SD n = 4; for tissue to tissue ratio at 4 h: BALB/c nude mice; for tissue uptake at 4 h: xenografted BALB/c nude mice, i.v.
Protocol: The overall biodistribution and tumor targeting properties of selected radiolabeled peptides were evaluated in female athymic BALB/c nude mice (Charles River, Sulzfeld, Germany, age of 7 to 9 weeks). After tumor induction with 2 × 10^6 A431-CCK2R or A431-mock cells (subcutaneously injected in 200 μL DMEM into the right and left flank) and a waiting period of 10–14 days (sufficient to achieve tumors of ∼0.25 g), mice were randomly divided into groups of four and treated with a bolus injection of 150 µL of the injectable solution containing the radiolabeled peptide via a lateral tail vein to achieve an injected radioactivity of 150–200 kBq and a total injected peptide amount of ~20 pmol (n = 4 for each radiopeptide). For DOTA-[(N-Me)1Nal^8]MGS5, additional biodistribution studies were performed with gallium-68 (~0.5 MBq, 20 pmol) and lutetium-177 (~0.5 MBq, 20 pmol). The animals were euthanatized by cervical dislocation at 1 h (gallium-68) or 4 h p.i. (indium-111/ lutetium-177). The tumors and other tissues (blood, lung, heart, muscle, spleen, intestine, liver, kidney, stomach, and pancreas) were dissected, weighed, and the radioactivity measured in the γ-counter. The rest of the body and a standard of the solution injected was also measured together with the collected samples. The percentage of injected activity per gram of tissue (% IA/g) and the tumor-to-organ activity ratio of selected tissues were calculated for each mouse and time point studied. Origin software (Microcal Origin 6.1, Northampton, MA, USA) was used for statistical analysis (independent t-test for two populations; significance level p < 0.05).

[5] = A431-CCK2R xenograft / blood, A431-CCK2R xenograft, read-out: tumor-to-organ ratio: blood
[6] = A431-CCK2R xenograft / stomach, A431-CCK2R xenograft, read-out: tumor-to-organ ratio: stomach
[7] = A431-CCK2R xenograft, read-out: Uptake in A431-CCK2R xenograft
[8] = A431-mock xenograft, read-out: Uptake in A431-mock xenograft
[9] = blood, read-out: Uptake in blood
[10] = heart, read-out: Uptake in heart
[11] = intestine, read-out: Uptake in intestine
[12] = kidneys, read-out: Uptake in kidneys
[13] = liver, read-out: Uptake in liver
[14] = muscle, read-out: Uptake in muscle
[15] = pancreas, read-out: Uptake in pancreas
[16] = spleen, read-out: Uptake in spleen
[17] = stomach, read-out: Uptake in stomach
[18] = A431-CCK2R xenograft / kidney, A431-CCK2R xenograft, read-out: tumor-to-organ ratio: kidney

Row | SMILES | Binding to Serum Proteins (%) [1] [%] | Intact Radiopeptide in Human Serum (%) [2] [%] | LogD [3] | LogD ([3]; read-out: LogD) | tissue to tissue ratio at 4 h [4, 5] | tissue to tissue ratio at 4 h [4, 6] | tissue uptake at 4 h [4, 7] [%ID/g] | tissue uptake at 4 h [4, 8] [%ID/g] | tissue uptake at 4 h [4, 9] [%ID/g] | tissue uptake at 4 h [4, 10] [%ID/g] | tissue uptake at 4 h [4, 11] [%ID/g] | tissue uptake at 4 h [4, 12] [%ID/g] | tissue uptake at 4 h [4, 13] [%ID/g] | tissue uptake at 4 h ([4]; lung, read-out: Uptake in lung) [%ID/g] | tissue uptake at 4 h [4, 14] [%ID/g] | tissue uptake at 4 h [4, 15] [%ID/g] | tissue uptake at 4 h [4, 16] [%ID/g] | tissue uptake at 4 h [4, 17] [%ID/g] | tissue to tissue ratio at 4 h [4, 18] | further results
1 | CCCC[C@@H](C(=O)N[C@@H](CC(=O)O)C(=O)N[C@@H](Cc1cccc2ccccc12)C(=O)NC)N(C)C(=O)[C@H](Cc1c[nH]c2ccccc12)NC(=O)CNC(=O)[C@H](Cc1ccc(O)cc1)NC(=O)[C@H](C)NC(=O)[C@@H](CCC(=O)O)NC(=O)CN1CCN(CC(=O)O)CCN(CC(=O)O)CCN(CC(=O)O)CC1 [DOTA-MGS5[NHCH3]] | 40.9 ± 3.1 | 98.1 ± 0.4 | −2.3 ± 0.2 |  |  |  |  |  |  |  |  |  |  |  |  |  |  |  |  | 
2 | CCCC[C@@H](C(=O)N[C@@H](CC(=O)O)C(=O)N(C)[C@@H](Cc1cccc2ccccc12)C(N)=O)N(C)C(=O)[C@H](Cc1c[nH]c2ccccc12)NC(=O)CNC(=O)[C@H](Cc1ccc(O)cc1)NC(=O)[C@H](C)NC(=O)[C@@H](CCC(=O)O)NC(=O)CN1CCN(CC(=O)O)CCN(CC(=O)O)CCN(CC(=O)O)CC1 [DOTA-[(N-Me)1Nal^8]MGS5] | 39.8 ± 4.2 | 99.6 ± 0.1 | −2.4 ± 0.3 |  |  |  |  |  |  |  |  |  |  |  |  |  |  |  |  | 
3 | CCCC[C@@H](C(=O)N[C@@H](CC(=O)O)C(=O)N[C@@H](Cc1cccc2ccccc12)C(N)=O)N(C)C(=O)[C@H](Cc1c[nH]c2ccccc12)NC(=O)CNC(=O)[C@H](Cc1ccc(O)cc1)NC(=O)[C@H](C)NC(=O)[C@@H](CCCCN)NC(=O)CN1CCN(CC(=O)O)CCN(CC(=O)O)CCN(CC(=O)O)CC1 [[^111In]In-DOTA-[DLys^1]MGS5, metal not drawn] ({DOTA}-[dK]AYGW[NMeNle]D[1Nal]-NH2) |  |  |  | -1.31 ± 0.11 | 176 ± 31.9 | 4.69 ± 1.19 | 33.9 ± 9.53 | 0.56 ± 0.27 | 0.2 ± 0.09 | 0.22 ± 0.06 | 1.96 ± 0.87 | ~20 | 1.94 ± 0.52 | 0.3 ± 0.11 | 0.13 ± 0.05 | 2.27 ± 1.2 | 0.54 ± 0.12 | 7.73 ± 3.49 | < 2 | 

Now from value to compound, other results behind:

Row | Binding to Serum Proteins (%) [1] [%] | Intact Radiopeptide in Human Serum (%) [2] [%] | LogD [3] | LogD ([3]; read-out: LogD) | tissue to tissue ratio at 4 h [4, 5] | tissue to tissue ratio at 4 h [4, 6] | tissue uptake at 4 h [4, 7] [%ID/g] | tissue uptake at 4 h [4, 8] [%ID/g] | tissue uptake at 4 h [4, 9] [%ID/g] | tissue uptake at 4 h [4, 10] [%ID/g] | tissue uptake at 4 h [4, 11] [%ID/g] | tissue uptake at 4 h [4, 12] [%ID/g] | tissue uptake at 4 h [4, 13] [%ID/g] | tissue uptake at 4 h ([4]; lung, read-out: Uptake in lung) [%ID/g] | tissue uptake at 4 h [4, 14] [%ID/g] | tissue uptake at 4 h [4, 15] [%ID/g] | tissue uptake at 4 h [4, 16] [%ID/g] | tissue uptake at 4 h [4, 17] [%ID/g] | tissue to tissue ratio at 4 h [4, 18] | SMILES | further results
4 | 34.6 ± 0.3 | 92.0 ± 1.2 | −1.7 ± 0.2 |  |  |  |  |  |  |  |  |  |  |  |  |  |  |  |  | CCCC[C@@H](C(=O)N[C@@H](CC(=O)O)C(=O)N[C@@H](Cc1ccc2ccccc2c1)C(N)=O)N(C)C(=O)[C@H](Cc1c[nH]c2ccccc12)NC(=O)CNC(=O)[C@H](Cc1ccc(O)cc1)NC(=O)[C@H](C)NC(=O)[C@@H](CCC(=O)O)NC(=O)CN1CCN(CC(=O)O)CCN(CC(=O)O)CCN(CC(=O)O)CC1 [DOTA-[2Nal^8]MGS5] | 
5 |  |  |  | -2.33 ± 0.23 | 69.9 ± 38.3 | 4.33 ± 0.56 | 4.16 ± 1.01 | 0.19 ± 0.08 | 0.08 ± 0.07 | 0.06 ± 0.02 | 0.59 ± 0.46 | 4.42 ± 1.15 | 0.36 ± 0.11 | 0.07 ± 0.01 | 0.04 ± 0.02 | 0.4 ± 0.04 | 0.13 ± 0.02 | 0.96 ± 0.17 |  | CCCC[C@@H](C(=O)N[C@@H](CC(=O)O)C(=O)N[C@@H](Cc1cccc2ccccc12)C(=O)NC)N(C)C(=O)[C@H](Cc1c[nH]c2ccccc12)NC(=O)CNC(=O)[C@H](Cc1ccc(O)cc1)NC(=O)[C@H](C)NC(=O)[C@@H](CCC(=O)O)NC(=O)CN1CCN(CC(=O)O)CCN(CC(=O)O)CCN(CC(=O)O)CC1 [[^111In]In-DOTA-MGS5[NHCH3], metal not drawn] | fraction unbound at 24 h, 500 pmol/mL [1]: 0.591
6 |  |  |  | -1.71 ± 0.19 | 399 ± 89.6 | 3.66 ± 0.64 | 25.4 ± 4.45 | 0.17 ± 0.04 | 0.06 ± 0.003 | 0.08 ± 0.01 | 0.95 ± 0.26 | 4.21 ± 0.29 | 0.66 ± 0.07 | 0.13 ± 0.03 | 0.04 ± 0.01 | 1.84 ± 0.52 | 0.18 ± 0.05 | 7.03 ± 1.1 | 6.04 ± 0.87 | CCCC[C@@H](C(=O)N[C@@H](CC(=O)O)C(=O)N[C@@H](Cc1ccc2ccccc2c1)C(N)=O)N(C)C(=O)[C@H](Cc1c[nH]c2ccccc12)NC(=O)CNC(=O)[C@H](Cc1ccc(O)cc1)NC(=O)[C@H](C)NC(=O)[C@@H](CCC(=O)O)NC(=O)CN1CCN(CC(=O)O)CCN(CC(=O)O)CCN(CC(=O)O)CC1 [[^111In]In-DOTA-[2Nal^8]MGS5, metal not drawn] | remaining at 24 h, 1000 pmol/mL [2]: > 90%
